This passage reports MIC results from DBAASP.

Test systems include Escherichia coli D31; Staphylococcus aureus MR; Staphylococcus aureus 1; Staphylococcus aureus; Pseudomonas aeruginosa; Escherichia coli B; Bacillus subtilis 168; Salmonella typhimurium; Proteus vulgaris; Bacillus subtilis; Streptococcus pyogenes; Escherichia coli; Proteus mirabilis.
Assay in all cases: ≥ marks a high value that may be exact or a test limit, other limits are often not marked, values filed in µg/mL are converted to µM
The subject of test [1] is Streptococcus mutans ATCC 25175.
Test [2] concerns Staphylococcus aureus ATCC 43300.
Test [3] deals with Staphylococcus aureus ATCC 25923.
The subject of test [4] is Escherichia coli ATCC 25922.
Test [5] deals with Candida albicans ATCC 10231.
The subject of test [6] is Bacillus subtilis ATCC 6633.
The test system of test [7] is Pseudomonas aeruginosa PAO1.
The subject of test [8] is Pseudomonas aeruginosa ATCC 15442.
Test [9] concerns Micrococcus luteus CCM 144.
In test [10] the test system is Pseudomonas aeruginosa ATCC 27853.
Test [11] relates to Candida albicans F7-39/IDE99.
For test [12], the system named is Staphylococcus epidermidis.
The subject of test [13] is Cronobacter sakazakii ATCC BAA-894.
For test [14], the system named is Pseudomonas fluorescens NCIMB 9046.
Test [15] relates to Staphylococcus aureus NCTC 8325-4.
The test system of test [16] is Salmonella enterica subsp. enterica serovar Typhimurium LT2.
In test [17] the test system is Staphylococcus aureus RF122.
Test [18] concerns Staphylococcus aureus Newman.
Test [19] has as its system Cronobacter sakazakii DPC 6440.
The test system of test [20] is Cronobacter sakazakii DSM 4485.
Test [21] deals with Staphylococcus aureus RN4220.
The test system of test [22] is Staphylococcus aureus SA113.
Test [23] concerns Klebsiella pneumoniae NCIMB 13218.
Test [24] has as its system Escherichia coli NCIMB 11843.
In test [25] the test system is Cronobacter muytjensii ATCC 51329.

Converted amounts (≈) assume the structure as drawn. Some results are limits rather than exact numbers.

The MIC is the lowest concentration that inhibits growth of the organism. The low end stands for inhibition by little substance, the high end for a need for much substance. Consider `CC[C@H](C)[C@H](NC(=O)[C@H](CCCCN)NC(=O)[C@H](CCC(N)=O)NC(=O)[C@H](CC(C)C)NC(=O)[C@@H](N)Cc1ccccc1)C(=O)N[C@H](C(=O)NCC(=O)N[C@@H](C)C(=O)N[C@@H](CC(C)C)C(=O)NCC(=O)N[C@@H](CCCCN)C(=O)N[C@@H](CC(C)C)C(=O)N[C@@H](Cc1ccccc1)C(N)=O)[C@@H](C)CC` [FLQKIIGALGKLF], for which the MIC in test [1] stood at 3.1 µM (≈ 4.49 µg/mL); in test [2] it was 6.2 µM (≈ 8.97 µg/mL); against Escherichia coli D31, 12.5 µM (≈ 18.1 µg/mL); in [3], 1.6 µM (≈ 2.31 µg/mL); in test [4], 6.2 µM (≈ 8.97 µg/mL); in test [5], 25 µM (≈ 36.2 µg/mL). In addition, the minimum inhibitory concentration (MIC) against Staphylococcus aureus MR amounted to 6.2 µM (≈ 8.97 µg/mL); in [6], 12.5 µM (≈ 18.1 µg/mL); in test [7], 12.5 µM (≈ 18.1 µg/mL); in test [8], 6.2 µM (≈ 8.97 µg/mL).

On to `CC[C@H](C)[C@H](NC(=O)CN)C(=O)N[C@@H](CC(C)C)C(=O)N[C@@H](CO)C(=O)N[C@@H](CO)C(=O)N[C@@H](CC(C)C)C(=O)N[C@@H](CC(C)C)C(=O)N[C@@H](CCCCN)C(=O)N[C@@H](CCCCN)C(=O)N[C@@H](Cc1c[nH]c2ccccc12)C(=O)N[C@@H](CCCCN)C(=O)N[C@@H](CCCCN)C(=O)N[C@H](C(=O)N[C@H](C(=O)N[C@@H](C)C(=O)N[C@@H](CCCCN)C(N)=O)[C@@H](C)CC)[C@@H](C)CC` [GILSSLLKKWKKIIAK], for which the MIC in test [2] was 20 µM (≈ 36.5 µg/mL); against Staphylococcus aureus 1 it was 7.8 µM (≈ 14.2 µg/mL); in test [9], 3 µM (≈ 5.48 µg/mL); in test [10], 5 µM (≈ 9.13 µg/mL); against Staphylococcus aureus, 20 µM (≈ 36.5 µg/mL); in the test on Pseudomonas aeruginosa it was 7.1 µM (≈ 13 µg/mL). Besides, the MIC amounted to 7.5 µM (≈ 13.7 µg/mL) in the test on Escherichia coli B, 11 µM (≈ 20.1 µg/mL) in [11], 2.7 µM (≈ 4.93 µg/mL) in test [12] and 7 µM (≈ 12.8 µg/mL) against Bacillus subtilis 168.

In the case of `CC[C@H](C)[C@H](NC(=O)CN)C(=O)N[C@@H](CC(C)C)C(=O)N[C@@H](CO)C(=O)N[C@@H](CO)C(=O)N[C@@H](CC(C)C)C(=O)N[C@@H](Cc1c[nH]c2ccccc12)C(=O)N[C@@H](CCCCN)C(=O)N[C@@H](CCCCN)C(=O)N[C@@H](CC(C)C)C(=O)N[C@@H](CCCCN)C(=O)N[C@@H](CCCCN)C(=O)N[C@H](C(=O)N[C@H](C(=O)N[C@@H](C)C(=O)N[C@@H](CCCCN)C(N)=O)[C@@H](C)CC)[C@@H](C)CC` [GILSSLWKKLKKIIAK], the minimum inhibitory concentration (MIC) was determined as 5.3 µM (≈ 9.67 µg/mL) in test [2]; 2 µM (≈ 3.65 µg/mL) against Staphylococcus aureus 1; 3 µM (≈ 5.48 µg/mL) in test [9]; 5.3 µM (≈ 9.67 µg/mL) in test [10]; 5 µM (≈ 9.13 µg/mL) against Staphylococcus aureus; 8.8 µM (≈ 16.1 µg/mL) with Pseudomonas aeruginosa. Further, the minimum inhibitory concentration (MIC) in the test on Escherichia coli B was 3.4 µM (≈ 6.21 µg/mL); in test [11], 11 µM (≈ 20.1 µg/mL); in test [12] it was 2 µM (≈ 3.65 µg/mL); against Bacillus subtilis 168, 7 µM (≈ 12.8 µg/mL).

For `CC[C@H](C)[C@H](N)C(=O)N[C@@H](CCCCN)C(=O)N[C@@H](Cc1cnc[nH]1)C(=O)N[C@@H](CCC(N)=O)C(=O)NCC(=O)N[C@@H](CC(C)C)C(=O)N1CCC[C@H]1C(=O)N[C@@H](CCC(N)=O)C(=O)N[C@@H](CCC(=O)O)C(=O)N[C@@H](CC(=O)O)C(=O)O` [IKHQGLPQED], the minimal inhibitory concentration (MIC) in test [13] was at least 625 µM; in test [14] it was at least 1250 µM; in test [15] it was at least 1250 µM; in [16], at least 2500 µM; in test [17], at least 1250 µM; in [18], at least 1250 µM. Besides, the MIC was at least 625 µM in test [19]; at least 625 µM in [20]; at least 1250 µM in test [21]; at least 625 µM in test [22]; at least 1250 µM in test [23]; at least 1250 µM in [24]. The molecule further came in with a minimal inhibitory concentration (MIC) in [25] of at least 2500 µM.

Turning to `CC(C)C[C@H](NC(=O)[C@H](CCCN=C(N)N)NC(=O)[C@@H]1CCCN1C(=O)[C@H](Cc1cnc[nH]1)NC(=O)[C@@H]1CCCN1C(=O)[C@@H]1CCCN1C(=O)[C@@H](N)CCCN=C(N)N)C(=O)O` [RPPHPRL], the MIC is at least 64 µM against Salmonella typhimurium; at least 64 µM with Proteus vulgaris; at least 64 µM in the test with Bacillus subtilis; at least 64 µM with Streptococcus pyogenes; 64 µM (≈ 55.8 µg/mL) against Pseudomonas aeruginosa; 64 µM (≈ 55.8 µg/mL) in the test on Escherichia coli. For the same molecule, the MIC in [12] was at least 64 µM.

Regarding `CC[C@H](C)[C@H](NC(=O)[C@H](Cc1ccc(O)cc1)NC(=O)[C@@H](NC(=O)[C@@H]1CCCN1C(=O)[C@@H](N)CCCN=C(N)N)C(C)C)C(=O)N1CCC[C@H]1C(=O)N[C@@H](CCC(N)=O)C(=O)N1CCC[C@H]1C(=O)N[C@@H](CCCN=C(N)N)C(=O)N1CCC[C@H]1C(=O)N1CCC[C@H]1C(=O)N[C@@H](Cc1cnc[nH]1)C(=O)N1CCC[C@H]1C(=O)N[C@@H](CCCN=C(N)N)C(=O)N[C@@H](CC(C)C)C(=O)O` [RPVYIPQPRPPHPRL], the MIC was 0.5 µM (≈ 0.912 µg/mL) with Salmonella typhimurium; at least 64 µM in the test on Proteus vulgaris; at least 64 µM in the test with Bacillus subtilis; at least 64 µM with Streptococcus pyogenes; 64 µM (≈ 117 µg/mL) with Pseudomonas aeruginosa; 16 µM (≈ 29.2 µg/mL) in the test on Escherichia coli. The same molecule came in with an MIC in test [12] of at least 64 µM.

`CC(C)C[C@H](NC(=O)[C@@H](N)C(C)C)C(=O)N[C@@H](CC(N)=O)C(=O)N[C@@H](CCC(=O)O)C(=O)N[C@@H](CC(N)=O)C(=O)N[C@@H](C)C(=O)N[C@@H](C)C(=O)N[C@@H](CCCN=C(N)N)C(=O)O` [VLNENAAR]: the MIC in [13] was at least 1250 µM; in test [14], at least 1250 µM; in [10], 32 µM (≈ 28.4 µg/mL); in test [15], at least 625 µM; in test [16], at least 2500 µM; in test [17], at least 1250 µM. Also, the minimal inhibitory concentration (MIC) in test [18] is at least 1250 µM; in test [19] it was at least 1250 µM; in [20], at least 625 µM; in test [21], at least 1250 µM; in [22] it was at least 1250 µM; in test [23], at least 2500 µM. Further, the MIC in test [24] was at least 2500 µM; in test [25], at least 1250 µM.

Regarding `NC(N)=NCCC[C@H](NC(=O)[C@H](CCCN=C(N)N)NC(=O)[C@H](CCCN=C(N)N)NC(=O)[C@H](CCCN=C(N)N)NC(=O)[C@H](CCCN=C(N)N)NC(=O)[C@H](CCCN=C(N)N)NC(=O)[C@H](CCCN=C(N)N)NC(=O)[C@H](CCCN=C(N)N)NC(=O)[C@H](Cc1c[nH]c2ccccc12)NC(=O)[C@H](Cc1c[nH]c2ccccc12)NC(=O)[C@H](Cc1c[nH]c2ccccc12)NC(=O)[C@@H](N)Cc1c[nH]c2ccccc12)C(=O)O` [WWWWRRRRRRRR], the MIC in the test with Proteus mirabilis was 31.8 µM (≈ 64 µg/mL); in the test with Staphylococcus aureus, 4.47 µM (≈ 9 µg/mL); against Streptococcus pyogenes it was 0.124 µM (≈ 0.25 µg/mL); against Pseudomonas aeruginosa, over 31.8 µM.
